In patent US20210196673A1 (priority 2018, published 2021):
In brackets after ≈: the same amount, converted by molar mass. Where two headings read alike, the source gives them in different places.

Columns and labels:
[1] = Stability of powder and liquid forms; type: physicochemical; settings: for stability of powder form on storage: 5° C.
H1N1 virus [2] = type: cell-based, influenza A virus
H1N1 virus [3] = type: cell-based, influenza A virus; remark: listed apart in the source
H1N1 virus [4] = type: cell-based, influenza A virus; remark: listed apart in the source
MDCK cells = experiment: Cell viability, MTT assay; type: cell-based; settings: 1 hour incubation
Experimental: Cell Viability: This experiment tested if EC16 formulations were associated with cytotoxicity in MDCK cells. MDCK cells were cultured in a 96 well plate until confluent. MEM serum free medium, MEM medium with 10% carrier and 20% carrier (carrier controls), or MEM medium containing 0.1% EC16 and 10% or 20% carrier was added to the wells followed by a 1 hour incubation at 35° C. with 5% CO2. The medium was then changed to 200 μl fresh MEM serum free medium with 0.2 μg/ml trypsin in each well and incubated overnight under the same condition. The plate was removed from the cell culture incubator and an MTT assay was performed according to a method described previously (Yamamoto, T., et al., Anticancer Research, 24:3065-3073 (2004)).

H1N1 virus [5] = test system: H1N1 virus
H1N1 virus [6] = test system: H1N1 virus; remark: listed apart in the source
[7] = target: SARS-CoV nucleocapsid (N) protein (Severe acute respiratory syndrome coronavirus, UniProt P59595); settings: cited from earlier work
Sequence of SARS-CoV nucleocapsid (N) protein (P59595 whole entry, looked up): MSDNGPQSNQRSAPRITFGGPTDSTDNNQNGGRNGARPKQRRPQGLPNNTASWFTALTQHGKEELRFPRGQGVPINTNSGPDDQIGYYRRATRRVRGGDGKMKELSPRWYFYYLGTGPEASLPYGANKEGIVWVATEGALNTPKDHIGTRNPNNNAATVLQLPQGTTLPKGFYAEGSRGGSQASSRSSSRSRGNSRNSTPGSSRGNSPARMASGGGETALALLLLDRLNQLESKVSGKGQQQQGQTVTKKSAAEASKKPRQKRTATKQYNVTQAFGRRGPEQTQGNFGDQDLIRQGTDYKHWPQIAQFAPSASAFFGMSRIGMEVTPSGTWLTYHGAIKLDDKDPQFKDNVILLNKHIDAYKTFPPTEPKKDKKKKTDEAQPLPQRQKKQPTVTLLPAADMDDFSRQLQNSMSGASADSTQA

[8] = target: SARS-CoV 3C-like protease (3CLPro) (Severe acute respiratory syndrome coronavirus, UniProt P0C6X7); settings: cited from earlier work
Vero cells = experiment: Primary CPE assay in Vero cells (cytotoxicity, CC50); type: cell-based
SARS-CoV-2 [9] = experiment: Secondary VYR (virus yield reduction) assay in Caco-2 cells; type: cell-based
Experimental: The secondary VYR assay in Caco-2 cells: Near-confluent cell culture monolayers of Caco-2 cells were prepared in 96-well disposable microplates the day before testing. Cells were maintained in MEM supplemented with 10% FBS. The same medium was used for antiviral assays and FBS was reduced to 2%, supplemented with 50-μg/ml gentamicin. EGCG was dissolved in serum-free MEM in a series of 2×dilutions from 100 μg/ml to 0.78 μg/ml. The EGCG diliutions were mixed and incubated with SARS-CoV-2 at 200 CCID50 (50% cell culture infectious dose) in 0.1 ml volume for 1 h prior to adding to the cell culture for 1 h absorption. Following absorption, the unabsorbed SARS-CoV-2 along with medium/EGCG was removed and fresh MEM was added to the cell culture for viral yield detection in comparison to untreated infection control. Five microwells were used per dilution: three for infected cultures and two for uninfected toxicity cultures. Controls for the experiment consist of six microwells that were infected and not treated (virus controls) and six that were untreated and uninfected (cell controls) on every plate. Medium devoid of virus was placed in toxicity control wells and cell control wells. Plates were incubated at 37° C. with 5% CO2 for 72 hours. A sample of supernatant was taken from each infected well (three replicate wells were pooled) and tested immediately. To evaluate toxicity, the plates were stained with 0.011% neutral red dye for approximately two hours at 37° C. in a 5% CO2 incubator. The neutral red medium was removed by complete aspiration, and the cells were rinsed 1× with phosphate buffered solution (PBS) to remove residual dye. The PBS is completely removed, and the incorporated neutral red was eluted with 50% Sorensen's citrate buffer/50% ethanol for at least 30 minutes. As larger the number of viable cells present in the wells, when the neutral red dye penetrated into the living cells, the more intense the red color appeared. The dye content in each well was quantified using a spectrophotometer at 540 nm wavelength. The dye content in each set of wells was converted to a percentage of dye present in untreated control wells using a Microsoft Excel computer-based spreadsheet and normalized based on the virus control. The 50% cytotoxic (CC50, cell-inhibitory) concentrations were then calculated by regression analysis.
The VYR test indicates how much EGCG inhibits virus entry and replication. Virus yielded in the presence of EGCG was titrated and compared to virus titers from the untreated virus controls. Titration of the viral samples (collected as described in the paragraph above) was performed by endpoint dilution (Reed-Muench method). Serial 1/10 dilutions of virus were made and plated into 4 replicate wells containing fresh cell monolayers of Vero 76 cells. Plates were then incubated, and cells were scored for the presence or absence of virus after distinct CPE was observed. The TCID50 values were calculated using the Reed-Muench method. The 90% (one log10) effective concentration (EC90) was calculated by regression analysis by plotting the log10 of the inhibitor concentration versus log10 of virus produced at each concentration. The quotient of CC50 divided by EC90 gave the selectivity index (SI) value. Compounds showing SI values ≥10 are considered active.

[10] = target: transmembrane protease serine 2 (TMPRSS2) (Homo sapiens, UniProt O15393); settings: in vitro study; cited from earlier work
Sequence of transmembrane protease serine 2 (TMPRSS2) (O15393 whole entry): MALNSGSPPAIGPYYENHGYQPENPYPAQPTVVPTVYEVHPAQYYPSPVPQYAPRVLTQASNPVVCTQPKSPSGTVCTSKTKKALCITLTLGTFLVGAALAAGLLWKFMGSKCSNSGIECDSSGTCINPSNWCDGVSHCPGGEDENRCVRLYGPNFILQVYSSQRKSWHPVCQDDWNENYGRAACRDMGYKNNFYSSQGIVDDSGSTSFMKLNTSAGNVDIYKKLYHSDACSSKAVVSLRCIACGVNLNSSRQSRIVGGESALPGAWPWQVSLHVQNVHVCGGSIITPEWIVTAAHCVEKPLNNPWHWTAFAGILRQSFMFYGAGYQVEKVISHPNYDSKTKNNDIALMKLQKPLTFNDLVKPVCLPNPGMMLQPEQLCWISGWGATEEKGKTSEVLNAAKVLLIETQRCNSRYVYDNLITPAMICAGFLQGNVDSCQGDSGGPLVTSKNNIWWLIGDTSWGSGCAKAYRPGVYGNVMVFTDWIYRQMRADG

influenza virus = settings: cited from earlier work
SARS-CoV-2 [11] = experiment: Primary CPE assay in Vero cells (antiviral)
[12] = EGCG 50 μg/ml (0.005%), Caco-2 cells
[13] = EGCG 100 μg/ml (0.01%), Caco-2 cells

(−)-epigallocatechin-3-gallate-palmitate [EC16]
stability in dry powder form [1]: stable
stability in proper liquid formulations ([1]; liquid formulations): stable
stability of powder form on storage [1]: stable at 5 °C for two years
H1N1 infectivity, % of control (H1N1 virus [2]; 0.01% EC16 in 10% carrier, 1 minute contact, n=3): 20.5%±17.1
H1N1 infectivity, % of control (H1N1 virus [2]; 0.01% EC16 in 20% carrier, separate experiments): 7.3%±9.2
H1N1 infectivity, % of control (H1N1 virus [2]; 0.1% EC16 in 10% carrier, 1 minute contact, first three replicates): 6.1%±3.0
H1N1 infectivity, % of control (H1N1 virus [2]; 0.1% EC16 in 10% carrier, additional three replicate experiments): 3.8%±1.5
H1N1 infectivity, % of control (H1N1 virus [2]; 0.1% EC16 in 10% carrier, overall mean (n=6)): 5.0%±2.4
H1N1 infectivity, % of control (H1N1 virus [2]; 0.1% EC16 in 20% carrier, 1 minute contact): 2.4%±1.1
cells protected from H1N1 infection (H1N1 virus [3]; 0.05% EC16, washed and 1 hour without EC16): 90%
block of H1N1 infection (H1N1 virus [3]; 0.1% EC16, 2 hours after first application, washed and 1 hour without EC16): almost completely blocked
viral TCID50, % of control (H1N1 virus [4]): 15.4%±15.2
cell viability (MTT) versus MEM control (MDCK cells; 0.1% EC16 in 10% carrier): not statistically different from the MEM control
cell viability (MTT) versus MEM control (MDCK cells; 0.1% EC16 in 20% carrier): not statistically different from the MEM control
viral titer (viability), % of control (H1N1 virus [5]; 0.01% EC16 in 10% carrier, 1 hour pre-treatment, n=4): 100%
infectivity, % of control (H1N1 virus [5]; 0.01% EC16 in 20% carrier, 1 hour pre-treatment): 2.3%±0.9
infectivity, % of control (H1N1 virus [5]; 0.1% EC16 in 10% carrier, 1 hour pre-treatment): 10.5%±3.6
reduction in titer (H1N1 virus [5]; 0.1% EC16 in 20% carrier): 42 fold
infectivity, % of control (H1N1 virus [5]; 0.1% EC16 in 20% carrier, 1 hour pre-treatment, n=7): 2.4%±1.6
viral titer in comparison to control (H1N1 virus [5]; EC16 0 to 0.1% in 2% DMSO instead of carrier): did not result in a statistically significant difference
remaining viability (infectivity), mean (H1N1 virus [6]; 0.01% EC16 in 10% carrier, 10 minutes): 48.4%±46.4
infectivity, mean % of control (H1N1 virus [6]; 0.01% EC16 in 20% carrier, 30 minutes): 7.6%±7.2
infectivity, mean % of control (H1N1 virus [6]; 0.1% EC16 in 10% carrier, 10 minutes): 9.5%±1.4
infectivity, mean % of control (H1N1 virus [6]; 0.1% EC16 in 20% carrier, 10 minutes): 12.1%±5.8
infectivity, mean % of control (H1N1 virus [6]; 0.1% EC16 in 20% carrier, 30 minutes): 0.9%±0.7

O=C(O[C@@H]1Cc2c(O)cc(O)cc2O[C@H]1c1cc(O)c(O)c(O)c1)c1cc(O)c(O)c(O)c1 [GCG, gallocatechin gallate]
inhibitory effect against SARS-CoV nucleocapsid (N) protein [7]: remarkable inhibitory effect
inhibition of SARS-CoV 3C-like protease [8]: significantly inhibited

O=C(O[C@@H]1Cc2c(O)cc(O)cc2O[C@@H]1c1cc(O)c(O)c(O)c1)c1cc(O)c(O)c(O)c1 [EGCG, (−)-epigallocatechin-3-gallate]
CC50 (NR) (Vero cells; neutral red (NR) readout): 2.3 mg/L (≈ 5.02 µM)
CC50 (VIS) (Vero cells; visual (VIS) readout): 3.2 mg/L (≈ 6.98 µM)
concentration that inhibited 90% of viral yield (EC90) (SARS-CoV-2 [9]; Caco-2 cells, value of b285): 28 mg/L
reduction in virus titer (SARS-CoV-2 [9]; [12]): 1.8 log 10
reduction of viral yield (SARS-CoV-2 [9]; [12]): 98.41%
reduction in virus titer (SARS-CoV-2 [9]; [13]): > 3.6 log 10
reduction of viral yield (SARS-CoV-2 [9]; [13]): > 99.975%
antiviral activity (SARS-CoV-2 [9]; EGCG at or lower than 25 μg/ml (0.0025%), Caco-2 cells): the activity was not detected
Viral titer of EGCG treated TCID50 values (SARS-CoV-2 [9]; concentration 0.78 μg/ml): 5.3 lon10
Viral titer of EGCG treated TCID50 values (SARS-CoV-2 [9]; concentration 1.56 μg/ml): 5.0 lon10
Viral titer of EGCG treated TCID50 values (SARS-CoV-2 [9]; concentration 3.13 μg/ml): 5.0 lon10
Viral titer of EGCG treated TCID50 values (SARS-CoV-2 [9]; concentration 6.25 μg/ml): 5.5 lon10
Viral titer of EGCG treated TCID50 values (SARS-CoV-2 [9]; concentration 12.5 μg/ml): 5.3 lon10
Viral titer of EGCG treated TCID50 values (SARS-CoV-2 [9]; concentration 25 μg/ml): 5.0 lon10
Viral titer of EGCG treated TCID50 values (SARS-CoV-2 [9]; concentration 50 μg/ml): 3.5 lon10
Viral titer of EGCG treated TCID50 values (SARS-CoV-2 [9]; concentration 100 μg/ml): <1.7 lon10
SIgo (CC50/EC90) (SARS-CoV-2 [9]; selectivity index): > 23
stability in aqueous solution ([1]; aqueous solution): not stable
stability in dry powder form [1]: stable
stability of powder form on storage [1]: stable at 5 °C for two years
CC50 (cytotoxicity) (Caco-2 cells; Caco-2 cells, neutral red, value of b285): > 100 mg/L
CC50 (Caco-2 cells; Neutral Red (Toxicity) assay, value of b289): > 100 mg/L
inhibition of TMPRSS2 [10]: inhibited TMPRSS2
inhibition of 3C^pro activity [8]: 80%
inhibition of SARS-CoV 3C-like protease [8]: significantly inhibited
effect of direct contact with influenza virus (influenza virus; direct contact of EGCG with virus, cell culture): inactivation of viral infectivity
anti-viral activity after pre-incubation of cells (influenza virus; pre-incubation of cells with EGCG, no contact with the virus): does not show anti-viral activity
EC50, inhibition of CPE (NR) (SARS-CoV-2 [11]; neutral red (NR) readout): 0.27 mg/L
EC50, inhibition of CPE (VIS) (SARS-CoV-2 [11]; visual (VIS) readout): 0.23 mg/L
